Species: Rattus norvegicus
Test: Open TG-GATES - Regimen: Daily Repeat
Format: toxicity, organism-based, Sprague-Dawley
Parameters: regimen Daily Repeat, gender Male, age 6 weeks
Conditions: in vivo, po, 10 mg/kg, route gavage, dose level Low; for APTT / Bas / Eos / Fbg / Hb / Ht / Lym / MCH / MCHC / MCV / Mono / Neu / PT / Plat / RBC / Ret / WBC: tissue Blood; for KIDNEY_L / KIDNEY_R / KIDNEY_TOTAL: tissue Kidney; for LIVER: tissue Liver; for A/G / ALP / ALT / AST / BUN / CRE / Ca / Cl / DBIL / GLC / IP / K / LDH / Na / PL / RALB / TBIL / TC / TG / TP / gamma-GTP: tissue Plasma

With `NC(=O)N/N=C/c1ccc([N+](=O)[O-])o1` [NITROFURAZONE] the TERMINAL_BW (72 h, time 3 day) was 217.9 g, the APTT (72 h, time 3 day) was 14.6 s and the Bas (72 h, time 3 day) was 0.2%. The Eos (72 h, time 3 day) was 0.8%, the Fbg (72 h, time 3 day) was 265.6 mg/dL and the Hb (72 h, time 3 day) was 12.9 g/dL. The Ht (72 h, time 3 day) was 39.6%, the Lym (72 h, time 3 day) was 77.8% and the MCH (72 h, time 3 day) was 22.1 pg. It also gave an MCHC (72 h, time 3 day) of 32.6%, an MCV (72 h, time 3 day) of 67.8 fL and a Mono (72 h, time 3 day) of 3.2%. The Neu (72 h, time 3 day) was 17.8%, the PT (72 h, time 3 day) was 14.4 s and the Plat (72 h, time 3 day) was 118.7 x10_4/uL. For the same molecule, the RBC (72 h, time 3 day) was 584.8 x10_4/ul, the Ret (72 h, time 3 day) was 9.3% and the WBC (72 h, time 3 day) was 97.1 x10_2/uL. It also gave a KIDNEY_L (72 h, time 3 day) of 1 g, a KIDNEY_R (72 h, time 3 day) of 1 g and a KIDNEY_TOTAL (72 h, time 3 day) of 1.9 g. It also gave an LIVER (72 h, time 3 day) of 10.7 g, an A/G (72 h, time 3 day) of 0.9 and an ALP (72 h, time 3 day) of 1665.4 IU/L. It also gave an ALT (72 h, time 3 day) of 49 IU/L, an AST (72 h, time 3 day) of 74.6 IU/L and a BUN (72 h, time 3 day) of 15 mg/dL. For the same molecule, the CRE (72 h, time 3 day) was 0.2 mg/dL, the Ca (72 h, time 3 day) was 11.3 mg/dL and the Cl (72 h, time 3 day) was 105.6 meq/L. For the same molecule, the DBIL (72 h, time 3 day) was 0.018 mg/dL, the GLC (72 h, time 3 day) was 189 mg/dL and the IP (72 h, time 3 day) was 7.9 mg/dL. For the same molecule, the K (72 h, time 3 day) was 4.3 meq/L, the LDH (72 h, time 3 day) was 69.6 IU/L and the Na (72 h, time 3 day) was 141.4 meq/L. The PL (72 h, time 3 day) was 151.8 mg/dL, the RALB (72 h, time 3 day) was 2.6 g/dL and the TBIL (72 h, time 3 day) was 0.048 mg/dL. For the same molecule, the TC (72 h, time 3 day) was 85 mg/dL, the TG (72 h, time 3 day) was 97.8 mg/dL and the TP (72 h, time 3 day) was 5.5 g/dL. For the same molecule, the gamma-GTP (72 h, time 3 day) was 1 IU/L, the TERMINAL_BW ([…], time 7 day) was 257.3 g and the TERMINAL_BW ([…], time 14 day) was 318.7 g. For the same molecule, the TERMINAL_BW ([…], time 28 day) was 442.9 g, the APTT ([…], time 7 day) was 16.7 s and the Bas ([…], time 7 day) was 0%. For the same molecule, the Eos ([…], time 7 day) was 1%, the Fbg ([…], time 7 day) was 257 mg/dL and the Hb ([…], time 7 day) was 13.2 g/dL. It also gave a Ht ([…], time 7 day) of 39.3%, a Lym ([…], time 7 day) of 79.2% and an MCH ([…], time 7 day) of 21.5 pg. For the same molecule, the MCHC ([…], time 7 day) was 33.7%, the MCV ([…], time 7 day) was 64 fL and the Mono ([…], time 7 day) was 2.4%. For the same molecule, the Neu ([…], time 7 day) was 16.6%, the PT ([…], time 7 day) was 14.3 s and the Plat ([…], time 7 day) was 113.7 x10_4/uL. For the same molecule, the RBC ([…], time 7 day) was 615 x10_4/ul, the Ret ([…], time 7 day) was 7.1% and the WBC ([…], time 7 day) was 83.6 x10_2/uL. For the same molecule, the APTT ([…], time 14 day) was 15.2 s, the Bas ([…], time 14 day) was 0.2% and the Eos ([…], time 14 day) was 0.8%. The Fbg ([…], time 14 day) was 353 mg/dL, the Hb ([…], time 14 day) was 13.5 g/dL and the Ht ([…], time 14 day) was 40.9%. For the same molecule, the Lym ([…], time 14 day) was 80%, the MCH ([…], time 14 day) was 20.2 pg and the MCHC ([…], time 14 day) was 33%. It also gave an MCV ([…], time 14 day) of 61.3 fL, a Mono ([…], time 14 day) of 2% and a Neu ([…], time 14 day) of 14.4%. It also gave a PT ([…], time 14 day) of 14.7 s, a Plat ([…], time 14 day) of 111.7 x10_4/uL and an RBC ([…], time 14 day) of 666.6 x10_4/ul. The Ret ([…], time 14 day) was 4.5%, the WBC ([…], time 14 day) was 106.9 x10_2/uL and the APTT ([…], time 28 day) was 16.4 s. The Bas ([…], time 28 day) was 0%, the Eos ([…], time 28 day) was 1.4% and the Fbg ([…], time 28 day) was 292.6 mg/dL. It also gave a Hb ([…], time 28 day) of 14.7 g/dL, a Ht ([…], time 28 day) of 43.8% and a Lym ([…], time 28 day) of 76.4%. For the same molecule, the MCH ([…], time 28 day) was 19.3 pg, the MCHC ([…], time 28 day) was 33.6% and the MCV ([…], time 28 day) was 57.6 fL. For the same molecule, the Mono ([…], time 28 day) was 2.2%, the Neu ([…], time 28 day) was 19.4% and the PT ([…], time 28 day) was 14.8 s. The Plat ([…], time 28 day) was 94.4 x10_4/uL, the RBC ([…], time 28 day) was 761 x10_4/ul and the Ret ([…], time 28 day) was 3%. The WBC ([…], time 28 day) was 94.8 x10_2/uL, the KIDNEY_L ([…], time 7 day) was 1.1 g and the KIDNEY_R ([…], time 7 day) was 1.1 g. The KIDNEY_TOTAL ([…], time 7 day) was 2.2 g, the KIDNEY_L ([…], time 14 day) was 1.3 g and the KIDNEY_R ([…], time 14 day) was 1.2 g. It also gave a KIDNEY_TOTAL ([…], time 14 day) of 2.5 g, a KIDNEY_L ([…], time 28 day) of 1.5 g and a KIDNEY_R ([…], time 28 day) of 1.5 g. For the same molecule, the KIDNEY_TOTAL ([…], time 28 day) was 3.1 g, the LIVER ([…], time 7 day) was 12.9 g and the LIVER ([…], time 14 day) was 15.3 g. It also gave an LIVER ([…], time 28 day) of 18.6 g, an A/G ([…], time 7 day) of 0.9 and an ALP ([…], time 7 day) of 1835.8 IU/L. The ALT ([…], time 7 day) was 44.6 IU/L, the AST ([…], time 7 day) was 70.8 IU/L and the BUN ([…], time 7 day) was 15.6 mg/dL. The CRE ([…], time 7 day) was 0.2 mg/dL, the Ca ([…], time 7 day) was 11.1 mg/dL and the Cl ([…], time 7 day) was 104 meq/L. For the same molecule, the DBIL ([…], time 7 day) was 0.016 mg/dL, the GLC ([…], time 7 day) was 184 mg/dL and the IP ([…], time 7 day) was 7.7 mg/dL. For the same molecule, the K ([…], time 7 day) was 3.7 meq/L, the LDH ([…], time 7 day) was 67 IU/L and the Na ([…], time 7 day) was 141.4 meq/L. It also gave a PL ([…], time 7 day) of 156.4 mg/dL, an RALB ([…], time 7 day) of 2.6 g/dL and a TBIL ([…], time 7 day) of 0.05 mg/dL. The TC ([…], time 7 day) was 83.4 mg/dL, the TG ([…], time 7 day) was 102 mg/dL and the TP ([…], time 7 day) was 5.6 g/dL. It also gave a gamma-GTP ([…], time 7 day) of 1 IU/L, an A/G ([…], time 14 day) of 0.8 and an ALP ([…], time 14 day) of 1653.4 IU/L. For the same molecule, the ALT ([…], time 14 day) was 47.4 IU/L, the AST ([…], time 14 day) was 83.6 IU/L and the BUN ([…], time 14 day) was 17.8 mg/dL. It also gave a CRE ([…], time 14 day) of 0.2 mg/dL, a Ca ([…], time 14 day) of 10.9 mg/dL and a Cl ([…], time 14 day) of 105 meq/L. For the same molecule, the DBIL ([…], time 14 day) was 0.014 mg/dL, the GLC ([…], time 14 day) was 185.8 mg/dL and the IP ([…], time 14 day) was 7.3 mg/dL. For the same molecule, the K ([…], time 14 day) was 4.1 meq/L, the LDH ([…], time 14 day) was 92.4 IU/L and the Na ([…], time 14 day) was 142.4 meq/L. For the same molecule, the PL ([…], time 14 day) was 156.2 mg/dL, the RALB ([…], time 14 day) was 2.7 g/dL and the TBIL ([…], time 14 day) was 0.044 mg/dL. It also gave a TC ([…], time 14 day) of 77.8 mg/dL, a TG ([…], time 14 day) of 123.8 mg/dL and a TP ([…], time 14 day) of 5.8 g/dL. It also gave a gamma-GTP ([…], time 14 day) of 1.4 IU/L, an A/G ([…], time 28 day) of 0.8 and an ALP ([…], time 28 day) of 1381.2 IU/L. The ALT ([…], time 28 day) was 39.4 IU/L, the AST ([…], time 28 day) was 64 IU/L and the BUN ([…], time 28 day) was 17.4 mg/dL. For the same molecule, the CRE ([…], time 28 day) was 0.2 mg/dL, the Ca ([…], time 28 day) was 10.8 mg/dL and the Cl ([…], time 28 day) was 103.6 meq/L. For the same molecule, the DBIL ([…], time 28 day) was 0.014 mg/dL, the GLC ([…], time 28 day) was 187.2 mg/dL and the IP ([…], time 28 day) was 6.6 mg/dL. It also gave a K ([…], time 28 day) of 3.6 meq/L, an LDH ([…], time 28 day) of 47.8 IU/L and a Na ([…], time 28 day) of 143 meq/L. It also gave a PL ([…], time 28 day) of 154.2 mg/dL, an RALB ([…], time 28 day) of 2.7 g/dL and a TBIL ([…], time 28 day) of 0.062 mg/dL. For the same molecule, the TC ([…], time 28 day) was 78 mg/dL, the TG ([…], time 28 day) was 133.6 mg/dL and the TP ([…], time 28 day) was 6.2 g/dL. The gamma-GTP ([…], time 28 day) was 1 IU/L.
